pIC50: −log10 of the molar value. “And” between values parts separate entries of the source, which are not always exact repeats. Equal values may be shown once.

The nature of the experiment: TarO Biochemical Enzymatic Assay: The TarO biochemical enzymatic assay is a liquid chromatography-mass spectroscopy (LC-MS) based end point assay that measures C55-P-P-GlcNAc (LIPID III) production. The TarO biochemical enzymatic assay was performed in a 384-well microtiter plate (Labcyte) with a reaction volume of 20 μl. The reaction mix contained 0.1 μgs/μl of TarO membrane preparation derived from MRSA COL (lysostaphin/lysozyme treated, centrifuged at 40K rpm, and re-suspended in 50 mM Tris pH 7.5, 10 mM MgCl2), 1500 μM UDP-GlcNAc, ×75 μM C55-P substrates in 83 mM Tris pH 8.0, 6.7 mM MgCl2, 6 mM CHAPS, and 8.3% DMSO buffer. The enzyme reactions were quenched by extraction in 40 μl of 1-pentanol containing 0.04 μM 15C C55-PP-GlcNAc, which was used as an internal standard. A 10 μl volume of the quenched reaction mixture (pH≈3) from each well was injected onto a reversed-phase column (C4, 5 μm, 2.1×50 mm, Thermo Scientific Biobacis-4) and eluted using a NH4Ac/H2O/MeOH gradient (solvent A: 10 mM NH4Ac in water, pH 5.6; solvent B: NH4Ac (1 M)-Isopropanol (1:90, v/v, pH 5.6). The HPLC conditions were as follows: 15% solvent B for 15 seconds followed by a gradient to 90% solvent B in 90 seconds; then solvent B was kept at 95% for 10 seconds followed by a gradient to 8% solvent B in 0.1 minute. The column was then equilibrated at 15% B for 1 minute before the next injection. The flow rate was kept constant at 600 μl/minute. Mass spectrometric detection was carried out in the negative-ion mode using selected reaction monitoring (SRM). Typical mass spectrometric conditions were as follows: heated capillary temperature, 210° C.; spray voltage, 2500 V; desolvation gas (N2), 40 l/h; auxiliary gas (N2), 35 l/h. Selected ion current (SIC) chromatograms of C55-PP-GlcNAc and internal standard 15C C55-PP-GlcNAc were plotted and integrated using LCQuan incorporated in Xcalibur software (ThermoFinnigan). The linearity of C55-PP-GlcNAc concentration versus mass spectrometric signal (AC55-PP-GlcNAc/A15C-C55-PP-GlcNAc) was determined with purified C55-PP-GlcNAc. The IC50 values were calculated using the nonlinear regression analysis (sigmoidal dose response fit allowing for a variable slope) of percent inhibition data with minimum and maximum values set to 0 and 100 percent.

For orientation: pIC50 means the IC50 on a negative log10 scale, so that one unit is a factor of ten. For `CCN(C(=O)CCn1c2cccc(N3CCOCC3)c2nc1[C@H]1CC[C@H](CC)CC1)C1CCCCC1`, the pIC50 is 5.46.
Take `CCN(C(=O)CCn1c2ccc(OC)cc2nc1[C@H]1CC[C@H](CC)CC1)C1CCCCC1`: the pIC50 was 6.82.
In the case of `CCN(C(=O)CCn1c(C2CCCN(C(=O)OC(C)(C)C)C2)nc2cc(F)ccc21)C1CCCCC1` (centres undefined), the pIC50 was 7.22 and 6.92.
Turning to `CCOC(=O)N1CCCC(c2nc3cc(F)ccc3n2CCC(=O)N(CC)C2CCCCC2)C1` (centres undefined), the pIC50 was 6.96 and 6.54.
Regarding `CCN(C(=O)CCn1c(C2CCCN(C(=O)OC(C)C)C2)nc2ccccc21)C1CCCCC1` (centres undefined), the negative-log IC50 (pIC50) was 6.59.
Consider `CC1(C)[C@@H]2CC[C@@]1(C)[C@H](NC(=O)CCn1c(C3CCCCC3)nc3ccccc31)C2`, for which the pIC50 was 6.70.
Turning to `CCN(C(=O)CCn1c(C2CCCN(c3nccc(C)n3)C2)nc2ccccc21)C1CCCCC1` (centres undefined), the pIC50 is 6.64.
As for `CCN(C(=O)CCn1c2ccc(F)cc2nc1[C@H]1CC[C@H](CC)CC1)C1CCCCC1`, the negative-log IC50 (pIC50) was 7.40.
Take `CCN(C(=O)CCn1c2ccc(C#N)cc2nc1[C@H]1CC[C@H](CC)CC1)C1CCCCC1`: the pIC50 was 6.38.
The figure for `CCN(C(=O)CCn1c(-c2ccc(OCC(F)(F)F)cc2)nc2ccccc21)C1CCCCC1` is 7.40; for `CCN(C(=O)CCn1c2cc(C#N)ccc2nc1[C@H]1CC[C@H](CC)CC1)C1CCCCC1` it is 6.10; for `CCN(C(=O)CCn1c(N2CCC(C(F)F)CC2)nc2ccccc21)C1CCCCC1` it is 6.77.
In the case of `CCN(C(=O)CCn1c2cc(CN3CC(F)(F)C3)ccc2nc1[C@H]1CC[C@H](CC)CC1)C1CCCCC1`, the negative logarithm of the IC50 (pIC50) is 5.75.
`CCN(C(=O)CCn1c(C2CCN(C(=O)OC(C)(C)C)C2)nc2cc(F)ccc21)C1CCCCC1` (centres undefined): the pIC50 is 6.40.
For `CCN(C(=O)CCn1c2cccc(C[C@H]3CCOC3)c2nc1[C@H]1CC[C@H](CC)CC1)C1CCCCC1`, the pIC50 was 6.28.
`CCN(C(=O)CCn1c(-c2ccc(C(=O)OC)cc2)nc2ccccc21)C1CCCCC1`: the negative-log IC50 (pIC50) was 6.89.
As to `CCN(C(=O)CCn1c(C2CCCN(c3ccccn3)C2)nc2ccccc21)C1CCCCC1` (centres undefined), the pIC50 is 7.05.
With `CCN(C(=O)CCn1c2cc(F)ccc2nc1[C@H]1CC[C@H](CC)CC1)C1CCCCC1`, the pIC50 is 7.70.
Turning to `CCCCOC(=O)N1CCCC(c2nc3ccccc3n2CCC(=O)N(CC)C2CCCCC2)C1` (centres undefined), the pIC50 is 7.15.
Turning to `CCN(C(=O)CCn1c(C2CCCN(c3cccc(OC)n3)C2)nc2ccccc21)C1CCCCC1` (centres undefined), the pIC50 is 8.00.
For the molecule `CCC1CCN(Cc2nc3cc(C)ccc3n2CCC(=O)N(CC)C2CCCCC2)CC1`, the negative logarithm of the IC50 (pIC50) is 5.98.
With `CCOc1ccc(-c2nc3ccccc3n2CCC(=O)N(CC)C2CCCCC2)cn1`, the pIC50 was 6.62.
With `CCc1nsc(N2CCCC(c3nc4ccccc4n3CCC(=O)N(CC)C3CCCCC3)C2)n1` (centres undefined), the pIC50 is 7.10.
For `CCN(C(=O)CCn1c2cccnc2nc1[C@H]1CC[C@H](CC)CC1)C1CCCCC1`, the pIC50 was 6.18.
On to `CCOC(=O)N1CCCC(c2nc3ccc(F)cc3n2CCC(=O)N(CC)C2CCCCC2)C1` (centres undefined), for which the pIC50 was 5.96.
Turning to `CCN(C(=O)CCn1c2ccncc2nc1[C@H]1CC[C@H](CC)CC1)C1CCCCC1`, the negative-log IC50 (pIC50) is 6.82.
The value for `CCN(C(=O)CCn1c2cc(CN)ccc2nc1[C@H]1CC[C@H](CC)CC1)C1CCCCC1` was 5.14.
As to `CCN(C(=O)CCn1c2cc(CN3CCN(CC(F)(F)F)CC3)ccc2nc1[C@H]1CC[C@H](CC)CC1)C1CCCCC1`, the pIC50 is 5.83.
For the molecule `CCN(C(=O)CCn1c2ccc(CO)cc2nc1[C@H]1CC[C@H](CC)CC1)C1CCCCC1`, the negative-log IC50 (pIC50) is 6.11.
`CCN(C(=O)CCn1c(C2CCC(C)N(c3nccc(OC)n3)C2)nc2ccccc21)C1CCCCC1` (centres undefined): the pIC50 is 6.85.
For the molecule `CCN(C(=O)CCn1c2cccc(F)c2nc1[C@H]1CC[C@H](CC)CC1)C1CCCCC1`, the negative-log IC50 (pIC50) is 7.52.
As for `CC(C)(C)OC(=O)N1CCC(c2nc3ccccc3n2CCC(=O)NC2C[C@H]3CC[C@]2(C)C3(C)C)C1` (some centres undefined), the negative logarithm of the IC50 (pIC50) is 5.47.
On to `CCN(C(=O)CCn1c2cc(CO)ccc2nc1[C@H]1CC[C@H](CC)CC1)C1CCCCC1`, for which the pIC50 is 6.92.
With `CCN(C(=O)CCn1c(CN2CCC(C(C)(C)C)CC2)nc2ccccc21)C1CCCCC1`, the pIC50 is 7.00.
Consider `CCN(C(=O)CCn1c2ccc(C3CC3)cc2nc1[C@H]1CC[C@H](CC)CC1)C1CCCCC1`, for which the negative logarithm of the IC50 (pIC50) was 6.89.
The figure for `CCN(C(=O)CCn1c(N2CCC(C(C)(C)C)CC2)nc2ccccc21)C1CCCCC1` is 8.00; for `CCCOC(=O)N1CC(c2nc3ccccc3n2CCC(=O)N(CC)C2CCCCC2)CCC1C` (centres undefined) it is 6.96; for `CCN(C(=O)CCn1c2ncccc2nc1[C@H]1CC[C@H](CC)CC1)C1CCCCC1` it is 6.52.
As for `CCN(C(=O)CCn1c2ccc(C(F)(F)F)cc2nc1[C@H]1CC[C@H](CC)CC1)C1CCCCC1`, the negative-log IC50 (pIC50) was 8.00.
The figure for `CCN(C(=O)CCn1c2c(F)cccc2nc1[C@H]1CC[C@H](CC)CC1)C1CCCCC1` is 7.40; for `CCN(C(=O)CCn1c2cccc(C(F)F)c2nc1[C@H]1CC[C@H](C)CC1)C1CCCCC1` it is 6.44.
The value for `CC(C)(C)OC(=O)NCC1CCC(c2nc3ccccc3n2CCC(=O)NC2C[C@H]3CC[C@]2(C)C3(C)C)CC1` (some centres undefined) was 5.87.
For the molecule `CCN(C(=O)CCn1c(N2CCC(C)CC2)nc2ccccc21)C1CCCCC1`, the pIC50 is 6.68.
For `CCN(C(=O)CCn1c2cnccc2nc1[C@H]1CC[C@H](CC)CC1)C1CCCCC1`, the negative logarithm of the IC50 (pIC50) is 6.08.
As to `CCCOC(=O)N1CCCC(c2nc3ccccc3n2CCC(=O)N(CC)C2CCCCC2)C1` (centres undefined), the pIC50 is 6.82.
As for `CCN(C(=O)CCn1c2cc(Br)ccc2nc1[C@H]1CC[C@H](CC)CC1)C1CCCCC1`, the negative logarithm of the IC50 (pIC50) is 7.52.
Turning to `CCN(C(=O)CCn1c(N2CCC[C@H](NC(=O)OC(C)(C)C)C2)nc2ccccc21)C1CCCCC1`, the pIC50 is 5.10.
As to `CCN(C(=O)CCn1c(C2CCCCC2)nc2ccccc21)C1CCCCC1`, the pIC50 is 7.15.
In the case of `CCC1CCN(Cc2nc3ccccc3n2CCC(=O)N(CC)C2CCCCC2)CC1`, the pIC50 was 6.68.
For the molecule `CCN(C(=O)CCn1c2ccc(Br)cc2nc1[C@H]1CC[C@H](CC)CC1)C1CCCCC1`, the pIC50 is 8.00.
As for `CCN(C(=O)CCn1c(N2CCC(F)(F)CC2)nc2ccccc21)C1CCCCC1`, the negative-log IC50 (pIC50) is 6.66.
Turning to `CCN(C(=O)CCn1c(-c2ccc(-n3ccnn3)cc2)nc2ccccc21)C1CCCCC1`, the negative-log IC50 (pIC50) was 5.42.
The value for `CC1CCN(C(=O)CCn2c(C3CCCCC3)nc3ccccc32)CC1` was 5.63.
The value for `CCN(C(=O)CCn1c2cc(-c3cnn(C)c3)ccc2nc1[C@H]1CC[C@H](CC)CC1)C1CCCCC1` was 7.30.
Take `CCN(C(=O)CCn1c(C2CCCN(c3nccc(OC)n3)C2)nc2ccccc21)C1CCCCC1` (centres undefined): the pIC50 was 7.10.
The figure for `CCN(C(=O)CCn1c2cc(C[C@H]3CCOC3)ccc2nc1[C@H]1CC[C@H](CC)CC1)C1CCCCC1` is 6.42; for `CC1(C)[C@@H]2CC[C@@]1(C)[C@H](NC(=O)CCn1c3ccccc3nc1[C@H]1CC[C@@H](C(C)(C)C)CC1)C2` it is 7.22.
Consider `CCN(C(=O)CCn1c(C2CCC(C)N(c3cccc(OC)n3)C2)nc2ccccc21)C1CCCCC1` (centres undefined), for which the pIC50 was 7.70.
The value for `CN(C(=O)CCn1c(C2CCCCC2)nc2ccccc21)C1CCCCC1` was 6.55.
